Tests used:
anaesthetized cat = assay: Effect on blood pressure, heart rate and adrenaline vasopressure response at anaesthetized cat; format: in vivo
Procedure: Effect on blood pressure, heart rate and adrenaline
(§1) (a) Cats (2.6-4.0 kg) of either sex anaesthetized with pentobarbitone sodium (40 mg/kg i.v.) and showing basal mean arterial blood pressure below 150 mm (Hg) were categorised as normotensive and above 150 mm Hg as hypertensive. Arterial blood pressure (EP) was recorded from one of the carotid artery through a stathum P23 DC pressure transducer and 7P1 low level DC preamplifier on a Grass Model P7 Polygraph, Signals from 7P1 preamplifier were used to trigger 7P4 Tachograph preamplifier for recording the heart rate (HR). Right femoral vein and Trachea were cannulated for intravenous injections and artificial ventilation respectively. Control responses to intravenous injection of noradrenaline (2-4 ug); acetyl choline (1-2 ug); histamine (1-2 ug) and isoprenaline (1-2 ug) were taken before and after the administration of test doses of each compounds.

[1] = tested on: Naturally occurring hypertensive cat; assay: Effect on blood pressure, heart rate and adrenaline vasopressor response, naturally occurring hypertensive cat; format: in vivo; conditions: n = 4
Procedure: (§2) 2. Effect on blood pressure, heart rate and adrenaline vasopressor response of anaesthetized (pentobarbitone sodium 40 & 60 mg/kg i.p. in cat and rat respectively) normotensive & hypertensive rat & cat model preparations.
as §1

Normotensive cat = assay: Effect on blood pressure, heart rate and adrenaline vasopressor response, normotensive cat; format: in vivo; conditions: n = 4
Procedure: as §2, §1

[2] = tested on: Hypertensive rat model preparation; assay: Effect on blood pressure, heart rate and adrenaline vasopressor response, hypertensive rat model preparation; format: in vivo
Procedure: as §2

[3] = tested on: Normotensive rat model preparation; assay: Effect on blood pressure, heart rate and adrenaline vasopressor response, normotensive rat model preparation; format: in vivo; conditions: n = 2
Procedure: as §2

Site of action: ICV = format: in vivo; conditions: dose 0.34-1.36
Isolated aortic strip = assay: Isolated aortic strip, endothelin induced contraction
[4] = tested on: Isolated Guinea pig ileum; assay: Isolated Guinea pig ileum preparation; conditions: in vitro
perfused rat heart = assay: Langendorffs perfused rat heart preparation, chronotropic effect
Rat aortic ring = Rat aortic ring preparation, NE induced contraction; conditions: in vitro
cat = assay: Drug antagonism studies at 2 uMol dose i.v. in cat; format: in vivo; conditions: 2 uMol i.v.
Excerpt: (B) In viva Drug antagonism studies at 2 uMol dose i.v. in cat: […]

[5] = tested on: Langendorff perfused rat heart; assay: Cardioprotective activity, Langendorff perfused rat heart, prolong period of ischemic insult
Procedure: Further, in Langendorff perfused rat heart preparation subjected to even up to 90 mm. global ischemia, the compound at 0.001 ug/ml conc.
The rats were killed by decaptitation, heart were rapidly excised and placed in ice-cold HEPES tyrode buffer. Then isolated hearts were perfused retrogradely through coronary arteries using the Langendorff technique. The perfusion buffer consisted (in mM) NaCl 137, KCl 5.4, CaCl2 1.8, MgCl2 1.0, glucose 11.2 and HEPES 3.0. The buffer (pH 7.4) was continuously gassed with oxygen and maintained at 37° C. Coronary flow rate was maintained at 10 ml/min. The heart contracted spontaneously.
The perfused heart was allowed to equillibrate for 30 min. before initiation of any insult protocol. The test compounds were given at the time of reperfusion. Some of the compounds were dissolved in ethanol. Final concentration of ethanol in the perfusion buffer was 0.0001% and had no effect of its own on the parameter used.
(b) For prolong period of ischemic insult (Becker, L. C. & Ambrosio, G. Myocardial consenquences of reperfusion. Prog. Cardiovas. Dis., 30, 23-44, 1987). Ischemia was initiated by stopping the flow for 30 min. followed by 30 min. reperfusion.

[6] = Felis catus, iv, 10.0 umol/kg i.v., read-out: B.P. fall %
[7] = Felis catus, iv, 2.0 umol/kg i.v.
[8] = Felis catus, iv, 10.0 umol/kg i.v.
[9] = 0.001 ug/ml at the time of reperfusion, up to 90 mm. global ischemia

O=C1CCCN1CCCN1CCN(c2ccccn2)CC1 [2-Pyridyl, n=1]
Adrenaline vasopressure response (R/Pt) (anaesthetized cat; 10.0 umol/kg i.v.): Pt (potentiation (was within 20%))
Blood pressure fall % at 2 µmol/kg (anaesthetized cat; Felis catus, iv, 2.0 umol/kg i.v., read-out: B.P. fall %): 22%
Blood pressure fall % at 10 µmol/kg (anaesthetized cat; [6]): 40%

O=C1CCCCN1CCCN1CCN(c2ccccn2)CC1 [2-Pyridyl, n=2, 1-[4-(2-pyridyl)piperazin-1-yl]-3-[2-oxopiperidin-1-yl]propane]
Adrenaline vasopressure response (R/Pt) (anaesthetized cat; 10.0 umol/kg i.v.): Pt (potentiation (was within 20%))
inhibition in vivo at 2 µmol/kg (anaesthetized cat; [7]): 28%

CCc1ccccc1N1CCN(CCCN2CCCC2=O)CC1 [C6 H4-2-C2 H5, n=1, 1-[4-(2-ethylphenyl)piperazin-1-Yl]-3-[2-oxopyrrolidin-1-yl]propane]
Adrenaline vasopressure response (R/Pt) (anaesthetized cat; 2.0 umol/kg i.v.): Pt (potentiation (was within 20%))

COc1ccccc1N1CCN(CCCN2CCCC2=O)CC1 [C6 H4-2-OCH3, n=1]
B.P. fall % (anaesthetized cat; 2.0 umol/kg i.v.): 19%
Adrenaline vasopressure response (R/Pt) (anaesthetized cat; 10.0 umol/kg i.v.): R
Blood pressure fall % at 10 µmol/kg (anaesthetized cat; [6]): 23%

O=C1CCCCN1CCCN1CCN(c2cccc(C(F)(F)F)c2)CC1 [C6 H4-3-CF3, n=2, 1-[4-(3-trifluoromethylphenyl)piperazin-1-yl]-3-[2-oxopiperidin-1-yl]propane]
Adrenaline vasopressure response (R/Pt) (anaesthetized cat; 2.0 umol/kg i.v.): Pt (potentiation (was within 20%))
Dur. (anaesthetized cat; 10.0 umol/kg i.v.): Tr
inhibition in vivo at 10 µmol/kg (anaesthetized cat; [8]): 25%

O=C1CCCN1CCCN1CCN(c2cccc(Cl)c2)CC1 [C6 H4-3-Cl, n=1, 1-[4-(3-chlorophenyl)piperazin-1-yl]-3-[2-oxopyrrolidin-1-yl]propane]
Adrenaline vasopressure response (R/Pt) (anaesthetized cat; 2.0 umol/kg i.v.): Pt-

O=C1CCCCN1CCCN1CCN(c2cccc(Cl)c2)CC1 [C6 H4-3-Cl, n=2, 1-[4-(3-chlorophenyl)piperazin-1-yl]-3-[2-oxopiperidin-1-yl]propane]
inhibition in vivo at 2 µmol/kg (anaesthetized cat; [7]): 33%
inhibition in vivo at 10 µmol/kg (anaesthetized cat; [8]): 10%

O=C1CCCN1CCCN1CCN(c2cccc(F)c2)CC1 [C6 H4-3-F, n=1, 1-[4-(3-fluorophenyl)piperazin-1-yl)-3-[2-oxopyrrolidin-1-yl]propane]
Adrenaline vasopressure response (R/Pt) (anaesthetized cat; 10.0 umol/kg i.v.): R
inhibition in vivo at 2 µmol/kg (anaesthetized cat; [7]): 80%

O=C1CCCCN1CCCN1CCN(c2ccc(Cl)cc2)CC1 [C6 H4-4-Cl, n=2, 1-[4-(4-chlorophenyl)piperazin-1-yl]-3-[2-oxopiperidin-1-yl]propane]
inhibition in vivo at 2 µmol/kg (anaesthetized cat; [7]): 20%
inhibition in vivo at 10 µmol/kg (anaesthetized cat; [8]): 25%

O=C1CCCN1CCCN1CCN(c2ccc(F)cc2)CC1 [C6 H4-4-F, n=1, 1-[4-(4-fluorophenyl)piperazin-1-yl]-3-[2-oxopyrrolidin-1-yl]propane]
Adrenaline vasopressure response % inhibition ([1]; 10 uMol/kg i.d.): 49%
B.P. Fall duration ([1]; 10 uMol/kg i.d.): 110 min
Adrenaline vasopressure response, R (Reversal) ([1]; 20 uMol/kg i.d.): 26%
B.P. Fall duration ([1]; 20 uMol/kg i.d.): > 156.75 min
Adrenaline vasopressure response % inhibition (Normotensive cat; 10 uMol/kg i.d.): 26%
B.P. Fall duration (Normotensive cat; 10 uMol/kg i.d.): 85 min
B.P. Fall duration (Normotensive cat; 20 uMol/kg i.d.): > 102.5 min
Adrenaline vasopressure response % inhibition ([2]; 5 uMol/kg i.d., n = 3): 33%
B.P. Fall duration ([2]; 5 uMol/kg i.d., n = 3): 51 min
Adrenaline vasopressure response % inhibition ([2]; 10 uMol/kg i.d., n = 5): 23%
B.P. Fall duration ([2]; 10 uMol/kg i.d., n = 5): 76 min
Adrenaline vasopressure response % inhibition ([2]; 20 uMol/kg i.d., n = 1): 54%
B.P. Fall duration ([2]; 20 uMol/kg i.d., n = 1): 100 min
Adrenaline vasopressure response % inhibition ([3]; 2 uMol/kg i.v.): +7%
Adrenaline vasopressure response % inhibition ([3]; 10 uMol/kg i.v.): +14%
Adrenaline vasopressure response % inhibition ([3]; 20 uMol/kg i.v.): -9.5%
B.P. fall Dur. (Site of action: ICV): 10 to 15 min
Endothelin response after washing the preparation (Isolated aortic strip; after washing the preparation): relaxation rather than contraction
Endothelin induced contraction (Isolated aortic strip; in vitro): inhibited significantly
Endothelin response [4]: relaxation rather than contraction
Negative chronotropic effect, duration (perfused rat heart; 1 ug): 10 min
Negative chronotropic effect, duration (perfused rat heart; 3 ug (higher doses 3-5 ug)): 14 min
Negative chronotropic effect, duration (perfused rat heart; 5 ug (higher doses 3-5 ug)): 5 min
inhibition at 0.001 mg (perfused rat heart; Rattus norvegicus, 1 ug, read-out: Negative chronotropic effect): 30%
inhibition at 0.003 mg (perfused rat heart; Rattus norvegicus, 3 ug (higher doses 3-5 ug), read-out: Negative chronotropic effect): 26%
inhibition at 0.005 mg (perfused rat heart; Rattus norvegicus, 5 ug (higher doses 3-5 ug), read-out: Negative chronotropic effect): 5%
NE induced contraction (Rat aortic ring): inhibited
Reduction of antihypertensive effect by pretreatment (cat; Dup-753 (angiotension II-receptor antagonist) pretreatment): 33%
Antihypertensive effect after pretreatment (cat; atropine sulphate pretreatment): failed to alter
Reduction of antihypertensive effect by pretreatment (cat; captopril (ACE inhibitor) pretreatment): 33%
Fall in blood pressure after pretreatment (cat; glibenclamide (KATP blocker) pretreatment): only partially reduced
Antihypertensive effect after pretreatment (cat; mepyramine maleate pretreatment): failed to alter
Reduction of antihypertensive effect by pretreatment (cat; prazosin (alpha1-adrenergic receptor blocker) pretreatment, significantly): 90%
Antihypertensive effect after pretreatment (cat; propranolol pretreatment): failed to alter
Reduction of antihypertensive effect by pretreatment (cat; verapamil (Ca++ channel blocker) pretreatment, significantly): 50%
Antihypertensive effect after pretreatment (cat; yohimbine pretreatment): failed to alter
Incidence of reperfusion induced arrhythmia [5, 9]: abolished
Revival of normal rhythmic contraction, start [5, 9]: ≤ 2 mm.
Cardioprotective effect against myocardial stunning, dose ([5]; compared with antihypertensive dose): much smaller dose than antihypertensive dose
Adrenaline vasopressure response (R/Pt) (anaesthetized cat; 10.0 umol/kg i.v.): R
inhibition in vivo at 2 µmol/kg (anaesthetized cat; [7]): 9%

O=C1CCCCN1CCCN1CCN(c2ccc(F)cc2)CC1 [C6 H4-4-F, n=2, 1-[4-(4-fluorophenyl)piperazin-1-yl]-3-[2-oxopiperidin-1-yl]propane]
Adrenaline vasopressure response (R/Pt) (anaesthetized cat; 10.0 umol/kg i.v.): R
inhibition in vivo at 2 µmol/kg (anaesthetized cat; [7]): 46%
